From patent US12570655B2, “Cysteine covalent modifiers of AKT1 and uses thereof” (Terremoto Biosciences, Inc., priority 2023, dated 2026) come the findings set out here.

Like-named read-outs stand apart in the source and are kept apart here. A value given as a limit tells only on which side of the number the result lay.

Type in all cases: cell-based
Test [1] concerns LAPC4 prostate cancer cells. Kind of test: Antiproliferative effects in LAPC4 cells (CellTiter Glo). The note with it: LAPC4 cells (AKT1 E17K allele), read-out: LAPC4 proliferation IC50. In outline:
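Growth inhibition is gauged by intracellular ATP content, measured with CellTiter Glo 72 h after compound addition to 1,000 seeded cells per well. IC50 derives from a Hill equation fit.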
(In general: In ATP-based viability assays light output follows the ATP content of the culture.)

A further test has as its target T1, AKT2 (Homo sapiens, UniProt P31751).
T1 construct: expressed in transfected cells; host or cells: HEK293
As to the kind of experiment: Live cell AKT2 target engagement by NanoBRET competitive probe displacement. The note with it: HEK293 cells transfected with kinase-NanoLuciferase fusion, 2 h at 37° C. Summed up:
(§1)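 Steps: overnight transfection of HEK293 with kinase-NanoLuc plasmids; addition of compound dilutions and tracer (~EC50); 2 h incubation at 37 °C; substrate plus extracellular luciferase inhibitor; luminescence at 460 and 600 nm. IC50 values came from fitting the BRET ratio to a Hill equation.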

The next test deals with T2, AKT1 WT (Homo sapiens, UniProt P31749).
T2 construct: expressed in transfected cells; host or cells: HEK293
Kind of test: Live cell AKT1 WT target engagement by NanoBRET competitive probe displacement. The settings on record: HEK293 cells transfected with kinase-NanoLuciferase fusion, 2 h at 37° C. In outline:
as §1

The target of another test is T3, AKT1 E17K (Homo sapiens, UniProt P31749, E17K).
T3 construct: expressed in transfected cells; host or cells: HEK293
As to the kind of experiment: Live cell AKT1 E17K target engagement by NanoBRET competitive probe displacement. The note with it: HEK293 cells transfected with kinase-NanoLuciferase fusion, 2 h at 37° C. Summed up:
as §1
(In general: BRET reads energy transfer from a luciferase to a nearby fluorophore.)

T2 sequence (P31749 whole entry): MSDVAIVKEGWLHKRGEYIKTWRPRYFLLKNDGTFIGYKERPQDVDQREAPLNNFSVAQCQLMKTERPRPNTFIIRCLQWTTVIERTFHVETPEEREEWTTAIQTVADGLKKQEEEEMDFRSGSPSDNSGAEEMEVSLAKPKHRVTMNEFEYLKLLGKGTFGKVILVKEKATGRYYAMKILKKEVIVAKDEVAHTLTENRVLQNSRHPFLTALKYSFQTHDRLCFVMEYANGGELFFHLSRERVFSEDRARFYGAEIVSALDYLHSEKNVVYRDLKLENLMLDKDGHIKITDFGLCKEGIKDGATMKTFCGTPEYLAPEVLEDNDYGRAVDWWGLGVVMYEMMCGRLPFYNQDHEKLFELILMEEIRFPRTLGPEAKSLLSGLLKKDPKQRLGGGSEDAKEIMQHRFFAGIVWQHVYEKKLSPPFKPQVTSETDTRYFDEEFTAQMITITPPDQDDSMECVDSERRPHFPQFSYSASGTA
T1 sequence (P31751 whole entry): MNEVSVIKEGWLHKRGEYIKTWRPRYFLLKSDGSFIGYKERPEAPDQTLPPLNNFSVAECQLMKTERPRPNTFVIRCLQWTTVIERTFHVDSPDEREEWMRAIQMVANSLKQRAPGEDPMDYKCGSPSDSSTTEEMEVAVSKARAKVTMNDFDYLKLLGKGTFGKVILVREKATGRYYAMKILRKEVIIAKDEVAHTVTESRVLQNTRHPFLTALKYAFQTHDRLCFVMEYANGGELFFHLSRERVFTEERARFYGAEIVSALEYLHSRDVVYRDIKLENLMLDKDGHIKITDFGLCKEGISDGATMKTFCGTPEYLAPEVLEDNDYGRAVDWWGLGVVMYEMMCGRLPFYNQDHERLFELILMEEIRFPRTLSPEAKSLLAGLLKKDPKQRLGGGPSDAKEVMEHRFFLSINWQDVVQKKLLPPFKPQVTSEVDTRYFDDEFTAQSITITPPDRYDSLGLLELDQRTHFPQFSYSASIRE
T3 sequence (P31749 whole entry E17K): as the sequence (P31749 whole entry) above, with E17K counted along it

Take `CC(C)(C)/C=C/C(=O)N1CCC(N[C@H]2CCc3cc(-n4c(-c5cccnc5N)nc5ccc(-n6cccn6)nc54)ccc32)CC1` [Example 95, (S,E)-1-(4-((5-(2-(2-aminopyridin-3-yl)-5-(1H-pyrazol-1-yl)-3H-imidazo[4,5-b]pyridin-3-yl)-2,3-dihydro-1H-inden-1-yl)amino)piperidin-1-yl)-4,4-dimethylpent-2-en-1-one]: the IC50 in test [1] (Homo sapiens, LAPC4, 72 h) was 677 nM; on AKT2 it was 1190 nM; on AKT1 WT it was 110 nM; at AKT1 E17K, 312 nM.

Regarding `C=CC(=O)Nc1c(F)cccc1C(=O)N[C@H]1CCc2cc(-n3c(-c4cccnc4N)nc4ccc(-n5cccn5)nc43)ccc21` [Example 44, N-[(1S)-5-[2-(2-aminopyridin-3-yl)-5-(pyrazol-1-yl)imidazo[4,5-b]pyridin-3-yl]-2,3-dihydro-1H-inden-1-yl]-3-fluoro-2-(prop-2-enamido)benzamide], the IC50 came to 122 nM in test [1] (Homo sapiens, LAPC4, 72 h); 103 nM on AKT2; 34.5 nM at AKT1 WT; 49 nM at AKT1 E17K.

With `C=CC(=O)N1CCC(N[C@H]2CCc3cc(-n4c(-c5cccnc5N)nc5ccc(C6CC6)nc54)ccc32)C[C@H]1C` (single isomer, unassigned) [Example 211, 1-((2R,4*)-4-(((S)-5-(2-(2-aminopyridin-3-yl)-5-cyclopropyl-3H-imidazo[4,5-b]pyridin-3-yl)-2,3-dihydro-1H-inden-1-yl)amino)-2-methylpiperidin-1-yl)prop-2-en-1-one], the IC50 in test [1] (72 h) turned out to be 319 nM; on AKT2, 79.8 nM; at AKT1 WT it was 1100 nM; at AKT1 E17K, 23.7 nM.

With `C=CC(=O)N1CCN(NC2CCc3cc(-n4c(-c5cccnc5N)nc5ccc(-n6ccc(F)n6)nc54)ccc32)CC1` (single isomer, unassigned) [Example 201, 1-(4-{[(1*)-5-[2-(2-aminopyridin-3-yl)-5-(3-fluoropyrazol-1-yl)imidazo[4,5-b]pyridin-3-yl]-2,3-dihydro-1H-inden-1-yl]amino}piperazin-1-yl)prop-2-en-1-one], the IC50 in test [1] (72 h) is 127 nM; at AKT2 it was 41 nM; on AKT1 WT, 96.8 nM; at AKT1 E17K it was 10.2 nM.

With `C=CC(=O)NC1CCC(N[C@H]2CCc3cc(-n4c(-c5cccnc5N)nc5ccc(-n6cccn6)nc54)ccc32)CC1` (single isomer, unassigned) [Example 48, N-((1*,4*)-4-(((S)-5-(2-(2-aminopyridin-3-yl)-5-(1H-pyrazol-1-yl)-3H-imidazo[4,5-b]pyridin-3-yl)-2,3-dihydro-1H-inden-1-yl)amino)cyclohexyl)acrylamide], the IC50 in test [1] (72 h) came to 1400 nM; on AKT2, 1280 nM; on AKT1 WT, 111 nM; on AKT1 E17K, 799 nM.

For `C=CC(=O)N1CCC(N[C@H]2CCc3cc(-n4c(-c5cccnc5N)nc5ccc(-c6nnc(C)o6)nc54)ccc32)CC1` [Example 256, (S)-1-(4-((5-(2-(2-aminopyridin-3-yl)-5-(5-methyl-1,3,4-oxadiazol-2-yl)-3H-imidazo[4,5-b]pyridin-3-yl)-2,3-dihydro-1H-inden-1-yl)amino)piperidin-1-yl)prop-2-en-1-one], the IC50 stood at 809 nM in test [1] (Homo sapiens, LAPC4, 72 h); 394 nM at AKT2; 1690 nM on AKT1 WT; 186 nM at AKT1 E17K.

Consider `C=CC(=O)N1CCC(N[C@H]2CCc3cc(-n4c(-c5cccnc5N)nc5ccc(-c6cnn(C(F)F)c6)nc54)ccc32)CC1` [Example 187, 1-(4-{[(1S)-5-[2-(2-aminopyridin-3-yl)-5-[1-(difluoromethyl)pyrazol-4-yl]imidazo[4,5-b]pyridin-3-yl]-2,3-dihydro-1H-inden-1-yl]amino}piperidin-1-yl)prop-2-en-1-one], for which the IC50 in test [1] (Homo sapiens, LAPC4, 72 h) was determined as 64.4 nM; at AKT2, 28.7 nM; at AKT1 WT, 46.4 nM; at AKT1 E17K, 7.3 nM.

With `C=CC(=O)N1CCOCC(N[C@H]2CCc3cc(-n4c(-c5cccnc5N)nc5ccc(-n6cccn6)nc54)ccc32)C1` (single isomer, unassigned) [Example 53, 1-((*)-6-(((S)-5-(2-(2-aminopyridin-3-yl)-5-(1H-pyrazol-1-yl)-3H-imidazo[4,5-b]pyridin-3-yl)-2,3-dihydro-1H-inden-1-yl)amino)-1,4-oxazepan-4-yl)prop-2-en-1-one], the IC50 is 2850 nM in test [1] (72 h), 3940 nM on AKT2, 407 nM at AKT1 WT and greater than 1000 nM at AKT1 E17K.

As for `C=CC(=O)N1CCC(N[C@H]2CCc3cc(-n4c(-c5cccnc5N)nc5ccc(-n6ccc(C7CCCC7)n6)nc54)ccc32)CC1` [Example 306, 1-(4-{[(1S)-5-[2-(2-aminopyridin-3-yl)-5-(3-cyclopentylpyrazol-1-yl)imidazo[4,5-b]pyridin-3-yl]-2,3-dihydro-1H-inden-1-yl]amino}piperidin-1-yl)prop-2-en-1-one], the IC50 in test [1] (Homo sapiens, LAPC4, 72 h) turned out to be 203 nM; on AKT2 it was 72.3 nM; at AKT1 WT it was 186 nM; on AKT1 E17K, 15.7 nM.

As to `C=CC(=O)N1CCC(N[C@@H]2c3ccc(-n4c(-c5cccnc5N)nc5ccc(-n6cccn6)nc54)cc3CC2F)CC1C(F)F` (single isomer, unassigned) [Example 304, 1-((2*,4*)-4-(((1R,2*)-5-(2-(2-aminopyridin-3-yl)-5-(1H-pyrazol-1-yl)-3H-imidazo[4,5-b]pyridin-3-yl)-2-fluoro-2,3-dihydro-1H-inden-1-yl)amino)-2-(difluoromethyl)piperidin-1-yl)prop-2-en-1-one], the IC50 in test [1] (72 h) came to 641 nM; on AKT2 it was 36.2 nM; at AKT1 WT, 264 nM; at AKT1 E17K, 11.6 nM.

Take `C=CC(=O)N1[C@H](C)CC(N[C@H]2CCc3cc(-n4c(-c5cccnc5N)nc5ccc(-n6cccn6)nc54)ccc32)C[C@@H]1C` (single isomer, unassigned) [Example 87, 1-((2S,4*,6R)-4-(((R)-5-(2-(2-aminopyridin-3-yl)-5-(1H-pyrazol-1-yl)-3H-imidazo[4,5-b]pyridin-3-yl)-2,3-dihydro-1H-inden-1-yl)amino)-2,6-dimethylpiperidin-1-yl)prop-2-en-1-one]: the IC50 turned out to be 364 nM in test [1] (72 h), 577 nM on AKT2, 25.5 nM on AKT1 WT and 165 nM at AKT1 E17K.

Consider `C=CC(=O)N1CCCC(N[C@H]2CCc3cc(-n4c(-c5cccnc5N)nc5ccc(-n6cccn6)nc54)ccc32)C1` (single isomer, unassigned) [Example 124, 1-[(3*)-3-{[(1S)-5-[2-(2-aminopyridin-3-yl)-5-(pyrazol-1-yl)imidazo[4,5-b]pyridin-3-yl]-2,3-dihydro-1H-inden-1-yl]amino}piperidin-1-yl]prop-2-en-1-one], for which the IC50 in test [1] (72 h) amounted to 4860 nM; on AKT2, 1120 nM; at AKT1 WT, 54.1 nM; on AKT1 E17K it was 99.2 nM.

Regarding `C=CC(=O)N1CCC(N[C@H]2CCc3cc(-n4c(-c5cccnc5N)nc5ccc(-n6cccn6)nc54)ccc32)C(F)C1` (single isomer, unassigned) [Example 105, 1-((3*,4*)-4-(((S)-5-(2-(2-aminopyridin-3-yl)-5-(1H-pyrazol-1-yl)-3H-imidazo[4,5-b]pyridin-3-yl)-2,3-dihydro-1H-inden-1-yl)amino)-3-fluoropiperidin-1-yl)prop-2-en-1-one], the IC50 in test [1] (72 h) was 53 nM; on AKT2, 50.1 nM; on AKT1 WT it was 4.51 nM; on AKT1 E17K, 14.8 nM.

For `C=CC(=O)N1CC2(CCCC(N[C@H]3CCc4cc(-n5c(-c6cccnc6N)nc6ccc(-n7cccn7)nc65)ccc43)C2)C1` (single isomer, unassigned) [Example 78, 1-((*)-6-(((S)-5-(2-(2-aminopyridin-3-yl)-5-(1H-pyrazol-1-yl)-3H-imidazo[4,5-b]pyridin-3-yl)-2,3-dihydro-1H-inden-1-yl)amino)-2-azaspiro[3.5]nonan-2-yl)prop-2-en-1-one], the IC50 in test [1] (Homo sapiens, LAPC4, 72 h) worked out at 212 nM; at AKT2, 136 nM; on AKT1 WT, 22 nM; on AKT1 E17K, 63 nM.

Consider `C=CC(=O)N(C)c1ccccc1C(=O)N[C@H]1CCc2cc(-n3c(-c4cccnc4N)nc4ccc(-n5cccn5)nc43)ccc21` [Example 4, (S)-N-(5-(2-(2-aminopyridin-3-yl)-5-(1H-pyrazol-1-yl)-3H-imidazo[4,5-b]pyridin-3-yl)-2,3-dihydro-1H-inden-1-yl)-2-(N-methylacrylamido)benzamide], for which the IC50 in test [1] (Homo sapiens, LAPC4, 72 h) came out at 4210 nM; on AKT2, 3750 nM; on AKT1 WT, 212 nM; on AKT1 E17K it was 823 nM.

For `C=CC(=O)N1CCC(N[C@H]2CCc3cc(-n4c(-c5cccnc5N)nc5ccc(-n6cccn6)nc54)ccc32)C[C@@H]1C` (single isomer, unassigned) [Example 66, 1-((2S,4*)-4-(((S)-5-(2-(2-aminopyridin-3-yl)-5-(1H-pyrazol-1-yl)-3H-imidazo[4,5-b]pyridin-3-yl)-2,3-dihydro-1H-inden-1-yl)amino)-2-methylpiperidin-1-yl)prop-2-en-1-one], the IC50 in test [1] (72 h) was found to be 68 nM; at AKT2, 51.5 nM; at AKT1 WT, 12.1 nM; at AKT1 E17K it was 29.6 nM.
